“And” between values parts separate entries of the source, which are not always exact repeats. Equal values may be shown once. Toxic doses and inconclusive results are not listed.
Test system: CD2F1 mice, L1210 leukemia ip, survival T/C
Assay: NCI In Vivo Anticancer Drug Screen. Data for tumor model L1210 Leukemia (intraperitoneal) in CD2F1 (CDF1) mice
Conditions: higher = longer survival
Method in brief: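 Implant tumor; dose compound or vehicle; measure endpoint in both groups; report treated divided by control.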

[1] = endpoint: mean survival time, dose: 100.0 mg/kg/injection, schedule: Q01DX009 (ip), vehicle: saline with Tween-80
[2] = endpoint: mean survival time, dose: 200.0 mg/kg/injection, schedule: Q01DX009 (ip), vehicle: saline with Tween-80
[3] = endpoint: mean survival time, dose: 400.0 mg/kg/injection, schedule: Q01DX009 (ip), vehicle: saline with Tween-80
[4] = endpoint: mean survival time, dose: 100.0 mg/kg/injection, schedule: Q04DX003 (ip), vehicle: saline with Tween-80
[5] = endpoint: mean survival time, dose: 200.0 mg/kg/injection, schedule: Q04DX003 (ip), vehicle: saline with Tween-80
[6] = endpoint: mean survival time, dose: 400.0 mg/kg/injection, schedule: Q04DX003 (ip), vehicle: saline with Tween-80
[7] = endpoint: mean survival time, dose: 50.0 mg/kg/injection, schedule: Q04DX003 (ip), vehicle: saline with Tween-80
[8] = endpoint: mean survival time, dose: 50.0 mg/kg/injection, schedule: Q01DX009 (ip), vehicle: Klucel (hydroxypropylcellulose) (HPC)
[9] = endpoint: mean survival time, dose: 100.0 mg/kg/injection, schedule: Q01DX009 (ip), vehicle: Klucel (hydroxypropylcellulose) (HPC)
[10] = endpoint: mean survival time, dose: 200.0 mg/kg/injection, schedule: Q01DX009 (ip), vehicle: Klucel (hydroxypropylcellulose) (HPC)
[11] = endpoint: mean survival time, dose: 100.0 mg/kg/injection, schedule: Q01DX001 (ip), vehicle: saline with Tween-80
[12] = endpoint: mean survival time, dose: 200.0 mg/kg/injection, schedule: Q01DX001 (ip), vehicle: saline with Tween-80

O=c1cc[nH]c(=S)[nH]1.[Pd]
T/C (endpoint: mean survival time, dose: 3.13 mg/kg/injection, schedule: Q04DX003 (ip), vehicle: distilled water + Tween-80): 101 % of control | T/C (endpoint: mean survival time, dose: 6.25 mg/kg/injection, schedule: Q04DX003 (ip), vehicle: distilled water + Tween-80): 101 % of control | T/C (endpoint: mean survival time, dose: 12.5 mg/kg/injection, schedule: Q04DX003 (ip), vehicle: distilled water + Tween-80): 96 % of control | T/C (endpoint: mean survival time, dose: 25.0 mg/kg/injection, schedule: Q04DX003 (ip), vehicle: distilled water + Tween-80): 98 % of control | T/C (endpoint: mean survival time, dose: 50.0 mg/kg/injection, schedule: Q04DX003 (ip), vehicle: distilled water + Tween-80): 95 % of control | T/C (endpoint: mean survival time, dose: 100.0 mg/kg/injection, schedule: Q04DX003 (ip), vehicle: distilled water + Tween-80): 90 % of control | T/C (endpoint: mean survival time, dose: 200.0 mg/kg/injection, schedule: Q04DX003 (ip), vehicle: distilled water + Tween-80): 90 % of control

OCC1OC(n2cnc3c(SSc4ncnc5c4ncn5C4OC(CO)C(O)C4O)ncnc32)C(O)C1O (stereo not given)
T/C (endpoint: mean survival time, dose: 178.0 mg/kg/injection, schedule: Q01DX009 (ip), vehicle: saline): 115 % of control | T/C (endpoint: mean survival time, dose: 400.0 mg/kg/injection, schedule: Q01DX009 (ip), vehicle: saline): 150 % of control

CCOC(=O)Nc1cccc(Cl)c1Cl
T/C [1]: 97 % of control | T/C [2]: 102 % of control | T/C [3]: 105 % of control

CN(C)N=Nc1ccccc1C(=O)NC#N
T/C (endpoint: mean survival time, dose: 9.38 mg/kg/injection, schedule: Q01DX009 (ip), vehicle: Klucel (hydroxypropylcellulose) (HPC)): 101 % of control and 103 % of control and 104 % of control

N#CC(CC(=O)c1ccc(Br)cc1)c1ccccc1 (stereo not given)
T/C [4]: 95 % of control | T/C [5]: 91 % of control | T/C [6]: 95 % of control

CC(=O)c1cc2ccccc2o1
T/C (endpoint: mean survival time, dose: 6.25 mg/kg/injection, schedule: Q04DX003 (ip), vehicle: saline with Tween-80): 96 % of control | T/C (endpoint: mean survival time, dose: 12.5 mg/kg/injection, schedule: Q04DX003 (ip), vehicle: saline with Tween-80): 96 % of control | T/C (endpoint: mean survival time, dose: 25.0 mg/kg/injection, schedule: Q04DX003 (ip), vehicle: saline with Tween-80): 101 % of control | T/C [7]: 95 % of control

CSc1nc(NC2OC(CO)C(O)C(O)C2O)c(I)c(=O)n1C (stereo not given)
T/C (endpoint: median survival time, dose: 12.5 mg/kg/injection, schedule: Q01DX005 (ip), vehicle: saline with Tween-80): 100 % of control | T/C (endpoint: median survival time, dose: 25.0 mg/kg/injection, schedule: Q01DX005 (ip), vehicle: saline with Tween-80): 100 % of control | T/C (endpoint: median survival time, dose: 50.0 mg/kg/injection, schedule: Q01DX005 (ip), vehicle: saline with Tween-80): 103 % of control | T/C (endpoint: median survival time, dose: 100.0 mg/kg/injection, schedule: Q01DX005 (ip), vehicle: saline with Tween-80): 107 % of control | T/C (endpoint: median survival time, dose: 200.0 mg/kg/injection, schedule: Q01DX005 (ip), vehicle: saline with Tween-80): 119 % of control

Cc1ccc([N+](=O)[O-])cc1NC(=O)Nc1cc([N+](=O)[O-])ccc1F
T/C [8]: 112 % of control | T/C [9]: 101 % of control | T/C [10]: 101 % of control

CC(CC(=O)O)[Se][Se]C(C)CC(=O)O (stereo not given)
T/C [11]: 95 % of control | T/C [12]: 103 % of control

CC(=O)OCC1CCCN1C(C)=O (stereo not given)
T/C (endpoint: mean survival time, dose: 100.0 mg/kg/injection, schedule: Q01DX001 (ip), vehicle: saline): 97 % of control | T/C (endpoint: mean survival time, dose: 200.0 mg/kg/injection, schedule: Q01DX001 (ip), vehicle: saline): 97 % of control | T/C (endpoint: mean survival time, dose: 400.0 mg/kg/injection, schedule: Q01DX001 (ip), vehicle: saline): 97 % of control

Oc1ccccc1CNc1ccccc1
T/C [4]: 98 % of control | T/C [5]: 93 % of control | T/C [6]: 104 % of control

CN(C)c1nc(N)cc(-c2ccncc2)n1
T/C (endpoint: mean survival time, dose: 100.0 mg/kg/injection, schedule: Q04DX002 (ip), vehicle: saline): 96 % of control | T/C (endpoint: mean survival time, dose: 200.0 mg/kg/injection, schedule: Q04DX002 (ip), vehicle: saline): 88 % of control

C=C(Cl)CSCC
T/C (endpoint: mean survival time, dose: 25.0 mg/kg/injection, schedule: Q01DX009 (ip), vehicle: acetone): 114 % of control | T/C (endpoint: mean survival time, dose: 50.0 mg/kg/injection, schedule: Q01DX009 (ip), vehicle: acetone): 120 % of control

CCC1(C)N=C(C)C(C)S1 (stereo not given)
T/C [1]: 89 % of control | T/C [2]: 100 % of control | T/C [3]: 91 % of control

Brc1ccc2c(c1)Cc1cc(N=Cc3ccc4c(c3)OCO4)ccc1-2
T/C (endpoint: mean survival time, dose: 100.0 mg/kg/injection, schedule: Q01DX001 (ip), vehicle: carboxymethylcellulose (CMC)): 97 % of control | T/C (endpoint: mean survival time, dose: 200.0 mg/kg/injection, schedule: Q01DX001 (ip), vehicle: carboxymethylcellulose (CMC)): 94 % of control | T/C (endpoint: mean survival time, dose: 400.0 mg/kg/injection, schedule: Q01DX001 (ip), vehicle: carboxymethylcellulose (CMC)): 100 % of control

CCN(C(=O)c1ccccc1Cl)C(c1ccco1)P(=O)(c1ccccc1)c1ccccc1 (stereo not given)
T/C [1]: 90 % of control | T/C [2]: 107 % of control

Cc1c(-c2ccc(-c3ccccc3F)cc2)nc2ccc(F)cc2c1C(=O)O
T/C (endpoint: median survival time, dose: 5.2 mg/kg/injection, schedule: Q01DX009 (ip), vehicle: water): 153 % of control | T/C (endpoint: median survival time, dose: 6.25 mg/kg/injection, schedule: Q01DX009 (ip), vehicle: water): 165 % of control | T/C (endpoint: median survival time, dose: 8.6 mg/kg/injection, schedule: Q01DX009 (ip), vehicle: water): 166 % of control | T/C (endpoint: median survival time, dose: 12.5 mg/kg/injection, schedule: Q01DX009 (ip), vehicle: water): 168 % of control | T/C (endpoint: median survival time, dose: 14.4 mg/kg/injection, schedule: Q01DX009 (ip), vehicle: water): 171 % of control | T/C (endpoint: median survival time, dose: 24.0 mg/kg/injection, schedule: Q01DX009 (ip), vehicle: water): 172 % of control | T/C (endpoint: median survival time, dose: 25.0 mg/kg/injection, schedule: Q01DX009 (ip), vehicle: water): 179 % of control | T/C (endpoint: median survival time, dose: 40.0 mg/kg/injection, schedule: Q01DX009 (ip), vehicle: water): 175 % of control | T/C (endpoint: median survival time, dose: 50.0 mg/kg/injection, schedule: Q01DX009 (ip), vehicle: water): 108 % of control | T/C (endpoint: median survival time, dose: 66.7 mg/kg/injection, schedule: Q01DX009 (ip), vehicle: water): 116 % of control | T/C (endpoint: median survival time, dose: 100.0 mg/kg/injection, schedule: Q01DX009 (ip), vehicle: water): 93 % of control

COc1cc2c3c(c1)/C(=N\NC(N)=S)CCN3CCC2
T/C [11]: 93 % of control | T/C [12]: 105 % of control | T/C (endpoint: mean survival time, dose: 400.0 mg/kg/injection, schedule: Q01DX001 (ip), vehicle: saline with Tween-80): 93 % of control

C1CCC2[N-]CCCC2C1.C1CCC2[N-]CCCC2C1.[Cl][Pt+2][Cl] (stereo not given)
T/C (endpoint: median survival time, dose: 3.12 mg/kg/injection, schedule: Q04DX003 (ip), vehicle: saline): 102 % of control | T/C (endpoint: median survival time, dose: 6.25 mg/kg/injection, schedule: Q04DX003 (ip), vehicle: saline): 98 % of control | T/C (endpoint: median survival time, dose: 12.5 mg/kg/injection, schedule: Q04DX003 (ip), vehicle: saline): 101 % of control | T/C (endpoint: median survival time, dose: 25.0 mg/kg/injection, schedule: Q04DX003 (ip), vehicle: saline): 105 % of control | T/C (endpoint: median survival time, dose: 50.0 mg/kg/injection, schedule: Q04DX003 (ip), vehicle: saline): 103 % of control | T/C (endpoint: median survival time, dose: 100.0 mg/kg/injection, schedule: Q04DX003 (ip), vehicle: saline): 94 % of control | T/C (endpoint: median survival time, dose: 200.0 mg/kg/injection, schedule: Q04DX003 (ip), vehicle: saline): 100 % of control

CCC(=O)C(c1ccccc1)(c1ccccc1)c1ccccc1
T/C (endpoint: mean survival time, dose: 25.0 mg/kg/injection, schedule: Q04DX002 (ip), vehicle: other): 98 % of control | T/C (endpoint: mean survival time, dose: 50.0 mg/kg/injection, schedule: Q04DX002 (ip), vehicle: other): 95 % of control | T/C (endpoint: mean survival time, dose: 100.0 mg/kg/injection, schedule: Q04DX002 (ip), vehicle: other): 95 % of control

CCCCNC(=O)C1CC2c3c(Br)ccc4c3C(CC2N(C)C1)CN4C(C)=O (stereo not given)
T/C [7]: 86 % of control | T/C [5]: 91 % of control

CC1(C)OC(C(O)COC(=O)c2ccccc2)C(C(O)COC(=O)c2ccccc2)O1 (stereo not given)
T/C [8]: 98 % of control | T/C [9]: 98 % of control | T/C [10]: 102 % of control

O=C(CNC(=O)Nc1cccc([N+](=O)[O-])c1)N/N=C/c1cc(Br)ccc1O
T/C (endpoint: mean survival time, dose: 50.0 mg/kg/injection, schedule: Q01DX009 (ip), vehicle: saline with Tween-80): 92 % of control | T/C [1]: 88 % of control | T/C [2]: 88 % of control

Source: PubChem BioAssay AID256 (DTP/NCI, 2004)
